Assay [1] has as its system hypophysectomized rat.
Assay [2] deals with hypophysectomized rat. This is another data set of the same source.
Procedure: The adrenal-stimulating activity by the intramuscular administration to hypophysectomized rat was also determined, where a peptide preparation was injected into the thigh muscle and a blood sample was collected from the abdominal aorta 30 minutes after the injection. Throughout the experiment, the USP Corticotropin Reference Standard was used as a standard and the production of 11-hydroxycorticosteroids was determined by the fluorophotometric method of Peterson [J. Biol. Chem. 225 25 (1975)].
Assay [3] concerns melanocyte.
Procedure: The in vivo melanocyte-stimulating activity was determined according to the method of A. Tanaka described in Endocrinol.
In assay [4] the test system is rats. Description: Protracted action: time course of plasma 11-OHCS level after i.m. or i.v. injection. Format: in vivo. The following applies: rats 100-120 g, 5 μg/rat intramuscularly or intravenously. The protocol: The protracted action of the present polypeptides, e.g., [Aib^1,Lys^17,18,19 ]--ACTH(1-19)--NH2, was studied using rats weighing 100-120 g. Synthetic human ACTH, Cortrosyn--Z^R (zinc complex suspension of ACTH(1-24)--OH)and [Gly^1 ]--ACTH(1-18)--NH2 were used for comparison. The petides were intramuscularly or intravenously injected into rats at a dose of 5 μg/rat, and then the production of 11-hydroxycorticosteroids (11-OHCS) was determined. Time course of 11-OHCS level in the plasma when the peptides were administered intramuscularly and intravenously is shown in FIG. 2, respectively. […] Cortrosyn-Z is the only ACTH preparation which has been used for therapeutical purpose, though it has rather strong melanocyte stimulating activity (c.f. Table 1). […] In FIG. 2, Cortrosyn-Z (suspension of a zinc complex of ACTH(1-24)--OH) is not shown, because the suspension cannot be used through intravenous route.

For assay [5], the system named is rats. The following applies: i.m. for 2 days.
Procedure: The effect on adrenal growth and thymus involution was determined in the following manner: peptides were intramuscularly injected into rats weighing 100-150 g at a dose of 20μg and 100 μg/rat/day for 2 days, respectively. The rats were then submitted to autopsy 24 hours after the last injection, and then the adrenal and thymus were weighed respectively.

Like-named read-outs stand apart in the source and are kept apart here. Where a SMILES comes first, the peptide text is derived from it. Where no end group is shown, it is not given here. [ ]: non-standard residue; d: D form. Aib = CC(C)(N)C(=O)O

With `CSCC[C@H](NC(=O)[C@H](CO)NC(=O)[C@H](Cc1ccc(O)cc1)NC(=O)C(C)(C)N)C(=O)N[C@@H](CCC(=O)O)C(=O)N[C@@H](Cc1c[nH]cn1)C(=O)N[C@@H](Cc1ccccc1)C(=O)N[C@@H](CCCNC(=N)N)C(=O)N[C@@H](Cc1c[nH]c2ccccc12)C(=O)NCC(=O)N[C@@H](CCCCN)C(=O)N1CCC[C@H]1C(=O)N[C@H](C(=O)NCC(=O)N[C@@H](CCCCN)C(=O)N[C@@H](CCCCN)C(=O)N[C@@H](CCCCN)C(=O)N[C@@H](CCCCN)C(=O)N[C@@H](CCCCN)C(N)=O)C(C)C` [[Aib^1,Lys^17,18,19]-ACTH(1-19)-NH2, Aib--Tyr--Ser--Met--Glu--His--Phe--Arg--Trp--Gly--Lys--Pro--Val--Gly--Lys- -Lys--Lys--Lys--Lys--NH2] (H-[Aib]YSMEHFRWGKPVGKKKKK-NH2), the “Adrenal-stimulating activity i.v. (relative potency)” value in assay [1] (rat, in vivo, iv) was determined as 5.7. Moreover, the “Adrenal-stimulating activity i.m. (relative potency)” value in assay [2] (rat, in vivo) was found to be 7.8. In addition, the “Melanocyte-stimulating activity in vivo (b), relative potency” value in assay [3] is listed as 0.11. Moreover, in assay [4] (Lys^17,18,19 ]--ACTH(1-19)--NH2), the “Protracted adrenal-stimulating action (time course of plasma 11-OHCS level)” value is “very protracted action”.

Regarding “GYSMEHFRWGKPVGKKRR-NH2 [[Gly^1]-ACTH(1-18)-NH2, [Gly^1]--ACTH(1-18)--NH2, reference compound]”, in assay [1] (rat, in vivo, iv), the “Adrenal-stimulating activity i.v. (relative potency)” value was 1.0. For the same molecule, in assay [2] (rat, in vivo), the “Adrenal-stimulating activity i.m. (relative potency)” value was 1.0. For the same molecule, the “effects on adrenal growth and thymus involution (in words)” value in assay [5] is on record as “very weak”. The “Melanocyte-stimulating activity in vivo (b), relative potency” value in assay [3] came out at 0.11.

For the molecule `CSCC[C@H](NC(=O)[C@H](CO)NC(=O)[C@H](Cc1ccc(O)cc1)NC(=O)C(C)(C)N)C(=O)N[C@@H](CCC(=O)O)C(=O)N[C@@H](Cc1c[nH]cn1)C(=O)N[C@@H](Cc1ccccc1)C(=O)N[C@@H](CCCNC(=N)N)C(=O)N[C@@H](Cc1c[nH]c2ccccc12)C(=O)NCC(=O)N[C@@H](CCCCN)C(=O)N1CCC[C@H]1C(=O)N[C@H](C(=O)NCC(=O)N[C@@H](CCCCN)C(=O)N[C@@H](CCCCN)C(=O)N[C@@H](CCCCN)C(=O)N[C@@H](CCCCN)C(N)=O)C(C)C` [[Aib^1,Lys^17,18]-ACTH(1-18)-NH2, [Aib^1,Lys^17,18]--ACTH(1-18)--NH2, reference compound] (H-[Aib]YSMEHFRWGKPVGKKKK-NH2), in assay [1] (rat, in vivo, iv), the “Adrenal-stimulating activity i.v. (relative potency)” value was found to be 9.3. Moreover, in assay [2] (rat, in vivo), the “Adrenal-stimulating activity i.m. (relative potency)” value is reported as 9.4. In addition, the “Melanocyte-stimulating activity in vivo (b), relative potency” value in assay [3] came out at 0.82.

For the molecule `CSCC[C@H](NC(=O)[C@H](CO)NC(=O)[C@H](Cc1ccc(O)cc1)NC(=O)C(C)(C)N)C(=O)N[C@@H](CCC(=O)O)C(=O)N[C@@H](Cc1c[nH]cn1)C(=O)N[C@@H](Cc1ccccc1)C(=O)N[C@@H](CCCNC(=N)N)C(=O)N[C@@H](Cc1c[nH]c2ccccc12)C(=O)NCC(=O)N[C@@H](CCCCN)C(=O)N1CCC[C@H]1C(=O)N[C@H](C(=O)NCC(=O)N[C@@H](CCCCN)C(=O)N[C@@H](CCCCN)C(=O)N[C@@H](CCCCN)C(=O)N[C@@H](CCCCN)C(=O)N[C@@H](CCCCN)C(=O)N[C@@H](CCCCN)C(N)=O)C(C)C` [[Aib^1,Lys^17,18,19,20]-ACTH(1-20)-NH2, Aib--Tyr--Ser--Met--Glu--His--Phe--Arg--Trp--Gly--Lys--Pro--Val--Gly--Lys- -Lys--Lys--Lys--Lys--Lys--NH2] (H-[Aib]YSMEHFRWGKPVGKKKKKK-NH2), the “Adrenal-stimulating activity i.v. (relative potency)” value in assay [1] (rat, in vivo, iv) was 6.3. In assay [2] (rat, in vivo), the “Adrenal-stimulating activity i.m. (relative potency)” value is given as 10.7. Besides, in assay [3], the “Melanocyte-stimulating activity in vivo (b), relative potency” value came out at 0.15.

Consider `CSCC[C@H](NC(=O)[C@H](CO)NC(=O)[C@H](Cc1ccc(O)cc1)NC(=O)C(C)(C)N)C(=O)N[C@@H](CCC(=O)O)C(=O)N[C@@H](Cc1c[nH]cn1)C(=O)N[C@@H](Cc1ccccc1)C(=O)N[C@@H](CCCNC(=N)N)C(=O)N[C@@H](Cc1c[nH]c2ccccc12)C(=O)NCC(=O)N[C@@H](CCCCN)C(=O)N1CCC[C@H]1C(=O)N[C@H](C(=O)NCC(=O)N[C@@H](CCCCN)C(=O)N[C@@H](CCCCN)C(=O)N[C@@H](CCCCN)C(=O)N[C@@H](CCCCN)C(=O)N[C@@H](CCCCN)C(N)=O)C(C)C` [[Aib^1, Lys^17,18,19]--ACTH(1-19)-- NH2] (H-[Aib]YSMEHFRWGKPVGKKKKK-NH2), for which, in assay [4], the “Protracted adrenal-stimulating action (time course of plasma 11-OHCS level)” value is reported as “protracted to almost the same extent as that produced by Cortrosyn-Z”.

For “Native ACTH: native corticotropin (ACTH), native hormone used for comparison (SYSMEHFRWGKPVGKKRRPVKVYPNGAEDESAEAFPLEF; Corticotropin; UniProt P01189 138-176, looked up)”, the “Adrenal-stimulating activity i.v. (relative potency)” value in assay [1] (hypophysectomized rat, femoral vein injection, blood sample 30 minutes after injection, USP Corticotropin Reference Standard as standard) was 1.0. The “Adrenal-stimulating activity i.m. (relative potency)” value in assay [2] (hypophysectomized rat, thigh muscle injection, blood sample 30 minutes after injection, USP Corticotropin Reference Standard as standard) was 4.0. In assay [5], the “effects on adrenal growth and thymus involution (in words)” value was “very weak”.

Regarding `CSCC[C@H](NC(=O)[C@H](CO)NC(=O)[C@H](Cc1ccc(O)cc1)NC(=O)C(C)(C)N)C(=O)N[C@@H](CCC(=O)O)C(=O)N[C@@H](Cc1c[nH]cn1)C(=O)N[C@@H](Cc1ccccc1)C(=O)N[C@@H](CCCNC(=N)N)C(=O)N[C@@H](Cc1c[nH]c2ccccc12)C(=O)NCC(=O)N[C@@H](CCCCN)C(=O)N1CCC[C@H]1C(=O)N[C@H](C(=O)NCC(=O)N[C@@H](CCCCN)C(=O)N[C@@H](CCCCN)C(=O)N[C@@H](CCCNC(=N)N)C(=O)N[C@@H](CCCNC(=N)N)C(N)=O)C(C)C` [[Aib^1]-ACTH(1-18)-NH2, [Aib^1]--ACTH(1-18)--NH2, reference compound] (H-[Aib]YSMEHFRWGKPVGKKRR-NH2), the “Adrenal-stimulating activity i.v. (relative potency)” value in assay [1] (rat, in vivo, iv) was 4.1. For the same molecule, the “Adrenal-stimulating activity i.m. (relative potency)” value in assay [2] (rat, in vivo) is recorded as 9.9. In addition, the “Melanocyte-stimulating activity in vivo (b), relative potency” value in assay [3] is given as 1.00.

The record behind these values is patent publication US4018754A, “Novel polypeptides having ACTH-like action” (Shionogi & Co., Ltd., priority 1974, dated 1977).
